Test results from paper PMC7391456, “Targeting fibroblast activation protein (FAP): next generation PET radiotracers using squaramide coupled bifunctional DOTA and DATA^5m chelators” (EJNMMI Radiopharmacy and Chemistry, 2020).

Experiment: Stability studies of gallium-68 complexes in media (EtOH, human serum, saline, PBS)
Format: physicochemical
Protocol: Gallium-68 stability studies against transmetallation (Fe, Cu, Ca, Mg), transchelation (EDTA, DTPA) as well as in HS, EtOH and saline (0.9% isotone NaCl-solution) were performed. 50 μl of the [^68Ga]Ga-DOTA.SA.FAPi labeling solution with > 95% radiochemical purity were added to 1 mL of the respective media. The measured time points for gallium-68 were 15, 30, 45, 60, 90, 120 min. HS (human male AB plasma, USA origin) was bought from Sigma Aldrich, PBS was purchased from Sigma Aldrich and 0.9% saline from B. Braun Melsungen AG (Melsungen, Germany).

Measured: Stability, intact conjugate

CN(CC(=O)[O-])C1(CCCCC(=O)NCCNc2c(NCCCCOc3ccc4nccc(C(=O)NCC(=O)N5CC(F)(F)C[C@H]5C#N)c4c3)c(=O)c2=O)CN(CC(=O)[O-])CCN(CC(=O)[O-])C1.[68Ga+3] [[^68Ga]Ga-DATA^5m.SA.FAPi]
> 95%: human serum (HS), over 2 h | phosphate buffered saline (PBS), over 120 min | saline 0.9% (NaCl), over 2 h
